Test results: ChEMBL document CHEMBL5230130, “COVID-19 therapy: What weapons do we bring into battle?” (Bioorg Med Chem, 2020)
Converted amounts (≈) assume the structure as drawn.

What was measured:
[1] = tested on: SARS-CoV-2; assay: Antiviral activity against SARS-CoV-2 nCoV-2019 BetaCoV/Wuhan/WIV04/2019 infected in African green monkey Vero E6 cells assessed as reduction in virus-induced cytopathic effect incubated for 48 hrs by qRT-PCR analysis; assay type: functional, organism-based; details: Severe acute respiratory syndrome coronavirus 2, nCoV-2019 BetaCoV/Wuhan/WIV04/2019, Vero C1008, 48 h
[2] = Antiviral activity against hCoV-EMC/2012 infected in monkey LLC-MK2 cells assessed as reduction in viral titers; assay type: functional, Human betacoronavirus 2c EMC/2012
[3] = Antiviral activity against hCoV-EMC/2012 infected in African green monkey Vero cells assessed as reduction in virus-induced cytopathic effect incubated for 24 hrs by […] assay; assay type: functional, cell-based, Human betacoronavirus 2c EMC/2012; details: Middle East respiratory syndrome-related coronavirus
[4] = Cytotoxicity against African green monkey Vero E6 cells assessed as cell growth inhibition measured after 48 hrs by CCK-8 assay; assay type: toxicity, cell-based, Vero C1008; details: chlorocebus sabaeus
[5] = tested on: SARS-CoV-2; assay: Antiviral activity against SARS-COV-2 infected in African green monkey Vero E6 cells; assay type: functional, organism-based; details: Severe acute respiratory syndrome coronavirus 2, Vero C1008
[6] = tested on: SARS-CoV-2; assay: Antiviral activity against SARS-COV 2; assay type: functional, organism-based; details: Severe acute respiratory syndrome coronavirus 2
[7] = tested on: SARS-CoV-2; assay: Antiviral activity against SARS-COV-2 infected in African green monkey Vero E6 cells assessed as inhibition of viral growth at 6.25 uM relative to control; assay type: functional; details: Severe acute respiratory syndrome coronavirus 2, Vero C1008
[8] = tested on: Middle East respiratory syndrome-related coronavirus; assay: Antiviral activity against MERS-CoV infected in human Calu-3 2B4 cells assessed as reduction in virus-induced cytopathic effect incubated for 48 hrs by celltiterglo assay; assay type: functional, organism-based; details: Calu-3 2B4, 48 h
[9] = Cytotoxicity against human Calu-3 2B4 cells assessed as cell growth inhibition measured after 48 hrs by celltiterglo assay; assay type: toxicity, cell-based
[10] = tested on: SARS-CoV; assay: Antiviral activity against SARS-COV infected in African green monkey Vero E6 cells assessed as reduction in virus-induced cytopathic effect incubated for 48 hrs by celltiterglo assay; assay type: functional, organism-based; details: Severe acute respiratory syndrome-related coronavirus, Vero C1008, 48 h
[11] = tested on: Middle East respiratory syndrome-related coronavirus; assay: Antiviral activity against MERS-CoV infected in African green monkey Vero E6 cells assessed as reduction in virus-induced cytopathic effect incubated for 48 hrs by celltiterglo assay; assay type: functional, organism-based; details: Vero C1008, 48 h
[12] = tested on: Canine coronavirus; assay: Antiviral activity against Canine coronavirus S-378 infected in dog A-72 cells; assay type: functional, organism-based; details: Alphacoronavirus 1, S-378, A-72
[13] = tested on: SARS-CoV-2; assay: Antiviral activity against SARS-COV-2 Australia/VIC01/2020 infected in African green monkey Vero cells by RT-PCR assay; assay type: functional, organism-based, Severe acute respiratory syndrome coronavirus 2
[14] = tested on: SARS-CoV-2; assay: Antiviral activity against SARS-COV-2 infected in African green monkey Vero E6 cells assessed as inhibition of viral growth at 0.195 uM relative to control; assay type: functional; details: Severe acute respiratory syndrome coronavirus 2, Vero C1008
[15] = Inhibition of human enteric coronavirus strain 4408 nucleoprotein
[16] = tested on: RAW264.7; assay: Anti-inflammatory activity against mouse RAW264.7 cells assessed as reduction in LPS induced IL-6 level by ELISA analysis; assay type: functional, cell-based
[17] = Inhibition of Bovine coronavirus nucleoprotein
[18] = tested on: Peritoneal macrophage; assay: Anti-inflammatory activity against mouse peritoneal macrophages assessed as reduction in LPS induced IL-6 level by ELISA analysis; assay type: functional, cell-based

Work on `NC(=O)c1ncn([C@@H]2O[C@H](CO)[C@@H](O)[C@H]2O)n1` [RIBAVIRIN] yielded an EC50 [1] of 11000 µM, a TCID50 [2] of 13.7 µg/mL and an IC50 [3] of 41.4 µg/mL (≈ 170 µM). The CC50 at 48 h [4] was > 400 µM.

For `COC(=O)C[C@](O)(CCCC(C)(C)O)C(=O)O[C@@H]1C(OC)=C[C@]23CCCN2CCc2cc4c(cc2[C@H]13)OCO4` [OMACETAXINE MEPESUCCINATE], the EC50 [5] was 2.1 µM.

Compound `CC(=O)N[C@@H]1[C@H](Oc2c3cc4cc2Oc2ccc(cc2Cl)[C@@H](O[C@@H]2O[C@@H](CO)[C@@H](O)[C@H](O)[C@@H]2NC(C)=O)[C@@H]2NC(=O)[C@H](NC(=O)[C@@H]4NC(=O)[C@H]4NC(=O)[C@@H](Cc5ccc(c(Cl)c5)O3)NC(=O)[C@H](N)c3ccc(O)c(c3)Oc3cc(O)cc4c3)c3ccc(O)c(c3)-c3c(O[C@H]4O[C@H](CO)[C@@H](O)[C@@H](O)[C@@H]4O)cc(O)cc3[C@@H](C(=O)O)NC2=O)O[C@@H](CO)[C@@H](O)[C@@H]1O` has an IC50 [6] of 1.66 µM.

In the case of `CCC(CC)COC(=O)[C@H](C)N[P@](=O)(OC[C@H]1O[C@@](C#N)(c2ccc3c(N)ncnn23)[C@H](O)[C@@H]1O)Oc1ccccc1`, the inhibition at 6.25 µM [7] is reported as 64.9%, the IC50 [8] is reported as 0.025 µM and the CC50 at 48 h [9] is reported as 10 µM.

`Nc1ccn([C@@H]2O[C@H](CO)[C@@H](O)C2(F)F)c(=O)n1` [GEMCITABINE] showed an EC50 [10] of 4.9 µM and an EC50 [11] of 1.2 µM.

`O=C(Nc1ncc([N+](=O)[O-])s1)c1ccccc1O` [TIZOXANIDE] gave an IC50 [12] of 1 µg/mL (≈ 3.77 µM).

With IVERMECTIN the IC50 [13] was 2 µM.

`CC[C@H]1CN2CCc3cc(OC)c(OC)cc3[C@@H]2C[C@@H]1C[C@H]1NCCc2cc(OC)c(OC)cc21` [EMETINE] gave an inhibition at 0.195 µM [14] of 64.9%.

In the case of `CC(=O)Oc1ccccc1C(=O)Nc1ncc([N+](=O)[O-])s1` [NITAZOXANIDE], the IC50 [15] is reported as 0.3 µg/mL (≈ 0.976 µM), the IC50 [16] is reported as 1540 µM and the IC50 [17] is reported as 0.3 µg/mL (≈ 0.976 µM). It also gave an IC50 [18] of 2000 µM.
